# Source: US9006464B2, “Substituted cyclopentanes having prostaglandin activity” (Allergan, Inc., priority 2007, dated 2015)
# How the values were obtained:
# [1] = molecular target: T1, DP (Homo sapiens, UniProt Q13258); experiment: Other receptors Ca2+ assay, DP; type: cell-based; details: DP receptor
# T1 sequence (Q13258 1-359): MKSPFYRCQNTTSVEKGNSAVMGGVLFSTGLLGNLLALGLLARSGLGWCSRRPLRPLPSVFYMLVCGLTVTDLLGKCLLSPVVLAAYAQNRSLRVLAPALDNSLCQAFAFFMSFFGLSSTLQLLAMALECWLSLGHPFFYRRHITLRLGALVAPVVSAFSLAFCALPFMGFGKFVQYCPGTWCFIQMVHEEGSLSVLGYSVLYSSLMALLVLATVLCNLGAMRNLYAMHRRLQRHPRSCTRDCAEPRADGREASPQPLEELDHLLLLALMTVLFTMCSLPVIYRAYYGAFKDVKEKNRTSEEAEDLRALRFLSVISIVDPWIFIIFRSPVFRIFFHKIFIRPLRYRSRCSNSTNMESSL
# Text: (§1) U.S. patent application Ser. No. 11/553,143, filed on Oct. 26, 2006, incorporated by reference herein, describes the methods used to obtain the in vitro data in Table 1 below.
# [2] = molecular target: T2, EP2 (Homo sapiens, UniProt P43116); experiment: EP2 Ca2+ signal assay; type: cell-based
# Text: as §1
# [3] = molecular target: T2, EP2; experiment: EP2 binding (Ki)
# Text: as §1
# [4] = molecular target: T3, TP (Homo sapiens, UniProt P21731); experiment: Other receptors Ca2+ assay, TP; type: cell-based; details: TP receptor
# T3 sequence (P21731 1-343): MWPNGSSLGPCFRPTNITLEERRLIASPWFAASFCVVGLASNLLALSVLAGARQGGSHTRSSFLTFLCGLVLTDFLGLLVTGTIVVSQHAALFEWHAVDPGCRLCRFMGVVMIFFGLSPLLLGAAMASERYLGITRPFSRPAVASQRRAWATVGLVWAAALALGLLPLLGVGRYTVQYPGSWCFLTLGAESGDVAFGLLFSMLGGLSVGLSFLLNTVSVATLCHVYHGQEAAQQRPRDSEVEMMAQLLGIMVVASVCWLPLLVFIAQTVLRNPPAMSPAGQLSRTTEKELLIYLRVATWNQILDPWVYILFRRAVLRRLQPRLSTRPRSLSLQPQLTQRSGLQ
# Text: as §1
# [5] = molecular target: T4, EP1 (Homo sapiens, UniProt P34995); experiment: Other receptors Ca2+ assay, EP1; type: cell-based; details: EP1 receptor
# T4 sequence (P34995 1-402): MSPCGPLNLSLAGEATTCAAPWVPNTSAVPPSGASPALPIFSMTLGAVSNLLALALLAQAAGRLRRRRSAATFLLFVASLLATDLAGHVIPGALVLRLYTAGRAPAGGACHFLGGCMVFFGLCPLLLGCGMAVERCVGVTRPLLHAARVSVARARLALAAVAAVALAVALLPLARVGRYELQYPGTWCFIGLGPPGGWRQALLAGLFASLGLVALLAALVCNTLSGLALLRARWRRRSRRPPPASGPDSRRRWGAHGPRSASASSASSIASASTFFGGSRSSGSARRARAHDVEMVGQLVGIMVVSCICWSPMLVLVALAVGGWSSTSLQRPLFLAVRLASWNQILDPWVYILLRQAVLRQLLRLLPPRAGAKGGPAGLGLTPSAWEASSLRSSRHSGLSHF
# Text: as §1
# [6] = molecular target: T5, EP4 (Homo sapiens, UniProt P35408); experiment: EP4 binding (Ki)
# Text: as §1
# [7] = molecular target: T5, EP4; experiment: EP4 Ca2+ signal assay; type: cell-based
# Text: as §1
# [8] = molecular target: T2, EP2; experiment: EP2 cAMP assay; type: cell-based
# Text: as §1
# [9] = molecular target: T6, EP3 (Homo sapiens, UniProt P43115); experiment: Other receptors Ca2+ assay, EP3; type: cell-based; details: EP3 receptor
# T6 sequence (P43115 1-390): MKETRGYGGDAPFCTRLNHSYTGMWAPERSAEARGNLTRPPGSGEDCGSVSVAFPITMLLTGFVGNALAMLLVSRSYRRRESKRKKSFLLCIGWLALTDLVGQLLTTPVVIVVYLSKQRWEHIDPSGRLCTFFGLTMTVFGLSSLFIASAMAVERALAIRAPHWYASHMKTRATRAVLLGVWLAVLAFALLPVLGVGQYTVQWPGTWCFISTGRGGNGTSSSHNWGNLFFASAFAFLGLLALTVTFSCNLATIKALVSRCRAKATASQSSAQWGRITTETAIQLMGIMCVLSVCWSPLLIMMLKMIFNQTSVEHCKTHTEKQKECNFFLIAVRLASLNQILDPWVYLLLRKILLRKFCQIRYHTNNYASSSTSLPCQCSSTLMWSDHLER
# Text: as §1
# [10] = system: MONKEY; experiment: Monkey intraocular pressure test; type: in vivo; details: Conc. 0.01 g/100 mL
# Text: (§2) U.S. Pat. No. 7,091,231, incorporated by reference herein, describes the methods used to obtain the in vivo test results presented in Table 2.
# [11] = system: DOG; experiment: Dog intraocular pressure test; type: in vivo; details: Conc. 0.01 g/100 mL
# Text: as §2
# [12] = system: DOG; experiment: Dog ocular hyperemia; type: in vivo; details: Conc. 0.01 g/100 mL
# Text: as §2
# T2 sequence (P43116 whole entry): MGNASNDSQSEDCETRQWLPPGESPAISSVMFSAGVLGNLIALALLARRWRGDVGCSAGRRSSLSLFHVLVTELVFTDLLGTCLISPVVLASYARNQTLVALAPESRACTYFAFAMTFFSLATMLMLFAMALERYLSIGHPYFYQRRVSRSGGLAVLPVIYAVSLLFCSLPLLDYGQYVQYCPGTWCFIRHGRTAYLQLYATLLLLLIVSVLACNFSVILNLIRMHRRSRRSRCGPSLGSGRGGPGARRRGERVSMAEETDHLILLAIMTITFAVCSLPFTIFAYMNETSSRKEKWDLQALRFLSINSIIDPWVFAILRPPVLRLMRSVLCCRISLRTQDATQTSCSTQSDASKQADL
# T5 sequence (P35408 whole entry): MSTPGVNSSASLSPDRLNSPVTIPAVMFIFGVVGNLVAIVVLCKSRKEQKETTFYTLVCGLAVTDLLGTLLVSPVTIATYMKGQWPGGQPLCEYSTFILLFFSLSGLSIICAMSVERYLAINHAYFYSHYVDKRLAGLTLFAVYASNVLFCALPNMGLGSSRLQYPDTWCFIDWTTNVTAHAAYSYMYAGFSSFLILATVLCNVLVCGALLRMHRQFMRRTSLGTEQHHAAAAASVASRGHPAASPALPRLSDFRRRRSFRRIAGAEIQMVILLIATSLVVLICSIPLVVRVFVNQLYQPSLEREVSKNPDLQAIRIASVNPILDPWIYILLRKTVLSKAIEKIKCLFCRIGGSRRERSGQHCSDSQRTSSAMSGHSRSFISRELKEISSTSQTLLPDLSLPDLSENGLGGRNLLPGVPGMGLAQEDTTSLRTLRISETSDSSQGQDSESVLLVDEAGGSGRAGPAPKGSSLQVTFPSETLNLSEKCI
EC50 [1] [nM],EC50 [2] [nM],Ki [3] [nM],EC50 [4] [nM],EC50 [5] [nM],Ki [6] [nM],EC50 [7] [nM],EC50 [8] [nM],EC50 [9] [nM],DOG Max. hyperemia [12],Compound,MONKEY Max. ΔIOP [10] [%],DOG Max. ΔIOP [11] [%]
10,0.8,7,178,1.3,4,0.2,0.4,6,–,"CCCCCC(O)/C=C/[C@@H]1[C@@H](CCCc2ccc(C(=O)O)s2)[C@H](Cl)C[C@H]1O (single isomer, unassigned) [Entry 15]",–,–
7730,26,202,–,86,577,42,5,421,–,"CCCCCC(O)/C=C/[C@@H]1[C@@H](CCCc2ccc(C(=O)O)s2)[C@H](Cl)C[C@H]1O (single isomer, unassigned) [Entry 16]",–,–
2080,74,6,187,–,–,9100,1,1740,–,"CCCCC[C@@H]1[C@@H](CCCc2ccc(C(=O)O)s2)[C@H](Cl)C[C@H]1O [Entry 1, 5-[3-((1R,2R,3R,5R)-5-Chloro-3-hydroxy-2-pentyl-cyclopentyl)-propyl]-thiophene-2-carboxylic acid]",–,–
–,–,–,–,–,–,–,–,–,2.0,"CCCCCCCC[C@@H]1[C@@H](CCCc2ccc(C(=O)OCCO)s2)[C@H](Cl)C[C@H]1O [Entry 1-8, 5-[3-((1R,2R,3R,5R)-5-Chloro-3-hydroxy-2-octyl-cyclopentyl)-propyl]-thiophene-2-carboxylic acid 2-hydroxy-ethyl ester]",53,35
–,–,–,–,–,–,–,–,–,0.9,CCCCCCCC[C@@H]1[C@@H](CCCc2ccc(C(=O)OC(C)C)s2)[C@H](Cl)C[C@H]1O [Entry 1-9],–,22
1780,405,4,2990,–,754,9380,0.7,5990,–,"CCCCCC[C@@H]1[C@@H](CCCc2ccc(C(=O)O)s2)[C@H](Cl)C[C@H]1O [Entry 2, 5-[3-((1R,2R,3R,5R)-5-Chloro-2-hexyl-3-hydroxy-cyclopentyl)-propyl]-thiophene-2-carboxylic acid]",–,–
–,21,1.5,–,–,1230,> 10000,3,6660,–,"CCCCCCCCC[C@@H]1[C@@H](CCCc2ccc(C(=O)O)s2)[C@H](Cl)C[C@H]1O [Entry 5, 5-[3-((1R,2R,3R,5R)-5-Chloro-3-hydroxy-2-nonyl-cyclopentyl)-propyl]-thiophene-2-carboxylic acid]",–,–
1000,531,37,–,> 10000,–,–,14,–,–,"O=C(O)c1ccc(CCC[C@@H]2[C@@H](C=CCCCCCCO)[C@H](O)C[C@H]2Cl)s1 [Entry 6, 5-{3-[(1R,2R,3R,5R)-5-Chloro-3-hydroxy-2-(8-hydroxy-oct-1-enyl)-cyclopentyl]-propyl}-thiophene-2-carboxylic acid]",–,–
573,303,60,249,–,–,14800,55,1160,–,"CCCC=C[C@@H]1[C@@H](CCCc2ccc(C(=O)O)s2)[C@H](Cl)C[C@H]1O [Entry 7, 5-[3-((1R,2R,3R,5R)-5-Chloro-3-hydroxy-2-pent-1-enyl-cyclopentyl)-propyl]-thiophene-2-carboxylic acid]",–,–
337,112,14,230,–,186,9100,8,544,–,"CCCCCC=C[C@@H]1[C@@H](CCCc2ccc(C(=O)O)s2)[C@H](Cl)C[C@H]1O [Entry 8, 5-[3-((1R,2R,3R,5R)-5-Chloro-2-hept-1-enyl-3-hydroxy-cyclopentyl)-propyl]-thiophene-2-carboxylic acid]",–,–
10500,512,18,–,–,695,34200,15,–,–,"CCCCCCCCC=C[C@@H]1[C@@H](CCCc2ccc(C(=O)O)s2)[C@H](Cl)C[C@H]1O [Entry 9, 5-[3-((1R,2R,3R,5R)-5-Chloro-2-dec-1-enyl-3-hydroxy-cyclopentyl)-propyl]-thiophene-2-carboxylic acid]",–,–
6130,69,5,–,–,–,> 10000,< 1,–,–,"O=C(O)c1ccc(CCC[C@@H]2[C@@H](CCCCCCCCO)[C@H](O)C[C@H]2Cl)s1 [Entry 10, 5-{3-[(1R,2R,3R,5R)-5-Chloro-3-hydroxy-2-(8-hydroxy-octyl)-cyclopentyl]-propyl}-thiophene-2-carboxylic acid]",–,–
1950,10,9,–,–,1520,23700,0.3,–,–,"O=C(O)c1ccc(CCC[C@@H]2[C@@H](CCCCCCCO)[C@H](O)C[C@H]2Cl)s1 [Entry 11, 5-{3-[(1R,2R,3R,5R)-5-Chloro-3-hydroxy-2-(7-hydroxy-heptyl)-cyclopentyl]-propyl}-thiophene-2-carboxylic acid]",–,–
253,46,60,–,–,2390,31400,3.6,–,–,"O=C(O)c1ccc(CCC[C@@H]2[C@@H](C=CCCCCCO)[C@H](O)C[C@H]2Cl)s1 [Entry 13, 5-{3-[(1R,2R,3R,5R)-5-Chloro-3-hydroxy-2-(7-hydroxy-hept-1-enyl)-cyclopentyl]-propyl}-thiophene-2-carboxylic acid]",–,–
11700,15,6,–,–,1110,> 10000,4,3000,–,"CCCCCCCC=C[C@@H]1[C@@H](CCCc2ccc(C(=O)O)s2)[C@H](Cl)C[C@H]1O [Entry 14, 5-[3-((1R,2R,3R,5R)-5-Chloro-3-hydroxy-2-non-1-enyl-cyclopentyl)-propyl]-thiophene-2-carboxylic acid]",–,–
2800,51,18,–,4930,–,713,2,593,–,"CCCC/C=C/CC[C@@H]1[C@@H](CCCc2ccc(C(=O)O)s2)[C@H](Cl)C[C@H]1O [Entry 18, 5-(3-((1R,2R,3R,5R)-5-chloro-3-hydroxy-2-((E)-oct-3-enyl)cyclopentyl)propyl)thiophene-2-carboxylic acid]",–,–
–,1160,6,–,–,7100,> 10000,2,–,–,"CCCCCCCCCC[C@@H]1[C@@H](CCCc2ccc(C(=O)O)s2)[C@H](Cl)C[C@H]1O [Entry 19, 5-(3-((1R,2R,3R,5R)-5-chloro-2-decyl-3-hydroxycyclopentyl)propyl)thiophene-2-carboxylic acid]",–,–
